Measurements published in patent US20220378744A1, “COMPOUNDS FOR TREATING PROLIFERATOR-ACTIVATED RECEPTORS (PPAR) MEDIATED DISEASES OR CONDITIONS” (MEDIPURE PHARMACEUTICALS INC., priority 2021, published 2022).

What was measured:
[1] = tested on: TNFα/IL-17A-stimulated HaCaT cells; assay: Anti-inflammatory effect of combined test compounds (Abn-CBD/CBD and PPAR agonists) in TNFα/IL-17A-stimulated HaCaT cells; assay type: cell-based, human
Procedure: HaCaT cells were maintained as described above in DMEM high glucose (4.5 g/L) medium supplemented with 10% FBS and 1% (v/v) penicillin/streptomycin solution (Invitrogen, Thermo Fisher) and kept in an incubator at 37° C. with 5% CO2. For experiments the cells were seeded at 5×10^4 cells/well in 0.5 mL of medium to a 24-well culture plate (Nunc, Thermo Fisher) and incubated overnight. The old medium in the culture plates was discarded and the corresponding stimulant, TNFα/IL-17A (R&D Systems) at 2 ng/mL each, with or without test chemicals in 0.5 mL of fresh medium was added to each cell well in the plate. There were duplicate wells for each treatment. The plate was incubated for another 24 h and the supernatant was collected for cytokine analysis, namely IL-6 and IL-8, using ELISA kits (Thermo Fisher).

[2] = tested on: IMQ-induced psoriasis in BALB/c mice; assay: IMQ-induced psoriasis model in BALB/c mice, topical creams, PASI score; assay type: in vivo; details: for tolerability in mice / visual damage on the skin: topical, seven-day consecutive treatment; for tolerability in mice: even at 10% creams; for visual damage on the skin: up to 10% creams
Procedure: The animal experiment is conducted in accordance with the Guidelines for the Institutional Animal Care and Use Committee. Both male and female BALB/c mice from Rodenta Bioserve, India, at 7-8 weeks of age and 20-25 gram of body weight are housed in a laboratory environment with constant temperature (24.0±1.0° C.) and relative humidity (45.0-55.0%) on a 12 h light/dark cycles. These animals are provided free access to unlimited amounts of food and water during the entire experiment. The animals are divided into 12 groups of 8 mice each and shaved on the back on day 0 for an area of 2×2 cm . Human-like psoriasis in mice is induced by topical application of 5% Imiquimod (IMQ) procured from AK Scientific, USA, and formulated in the base cream at desired percentages in-house, in shaved area and right ear (0.5×0.5 cm). […] Vehicle, clobetasol propionate (CP, Sigma. 0.05% w/w; positive control), test creams, and CBD (Ilesol Pharmaceuticals), respectively, is applied topically on both the shaved back (80 mg cream) and the right ear (20 mg cream) of mice, once daily from day 10 to day 16. The study ends at day 17. At stated time points the severity of psoriasis is evaluated using the PASI score (Psoriasis Area Severity Index: sum of erythema, scaling and thickening, scored independently from 0 to 4 for each mouse; max PASI score=12). Tissue and blood samples are collected for histopathology, biochemistry and immunoassay from each animal at various points.

human PPARδ/β (NR1C2) = target: T1, human PPARδ/β (NR1C2) (Homo sapiens, UniProt Q03181); assay: Cell-based human PPARδ/β transactivation (nuclear receptor reporter) assay; details: at tested concentrations
T1 sequence (Q03181 1-441): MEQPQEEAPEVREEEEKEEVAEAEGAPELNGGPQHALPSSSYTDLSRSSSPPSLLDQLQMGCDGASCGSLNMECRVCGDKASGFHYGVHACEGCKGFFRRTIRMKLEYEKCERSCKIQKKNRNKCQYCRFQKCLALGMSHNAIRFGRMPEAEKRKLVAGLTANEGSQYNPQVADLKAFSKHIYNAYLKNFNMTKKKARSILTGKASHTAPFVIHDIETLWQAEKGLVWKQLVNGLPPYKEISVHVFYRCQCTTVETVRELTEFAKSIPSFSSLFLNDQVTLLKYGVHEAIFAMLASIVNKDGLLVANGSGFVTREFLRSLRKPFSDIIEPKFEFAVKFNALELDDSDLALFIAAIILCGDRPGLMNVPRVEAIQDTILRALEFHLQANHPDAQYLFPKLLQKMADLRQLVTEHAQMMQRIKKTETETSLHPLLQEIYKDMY
Procedure: (§1) The assay was performed using cell-based human PPAR nuclear receptor reporter assay kits (NR1C1 for PPARα; NR1C2 for PPARδ/β, and NR1C3 for PPARγ, Indigo Biosciences) by following the manufacturer's instruction. In brief, PPAR reporter cells were added to CRM medium (Indigo Biosciences), seeded into wells of a 96-well culture plate and incubated for 5 hours in a cell culture incubator at 37° C. with 5% CO2. The medium was then removed, and the cells were treated with test compounds at different concentrations in CSM medium (Indigo Biosciences) for 24 h inside the incubator. […] DMSO (Sigma) at 0.1% (v/v) was used as negative baseline control (C). Each treatment was tested in duplicate wells. At the end point of the experiments, the treatment medium was discarded and Luciferase Detection Reagent (Indigo Biosciences) was added. Following a 10-minute rest period, the intensity of light emission (in units of “Relative Light Units; RLU”) from each assay well was quantified using a plate-reading luminometer (Synergy H1 plate reader, BioTek). In addition, live cell multiplex assay (Indigo Biosciences) was combined with the activation assays to detect potential cytotoxic effect, if any, of the test chemicals to normalize the signals as per manufacturer's instruction.

human PPARα (NR1C1) = target: T2, human PPARα (NR1C1) (Homo sapiens, UniProt Q07869); assay: Cell-based human PPARα transactivation (nuclear receptor reporter) assay; details: luciferase reporter cells, 24 h treatment, FIG. 1
T2 sequence (Q07869 1-468): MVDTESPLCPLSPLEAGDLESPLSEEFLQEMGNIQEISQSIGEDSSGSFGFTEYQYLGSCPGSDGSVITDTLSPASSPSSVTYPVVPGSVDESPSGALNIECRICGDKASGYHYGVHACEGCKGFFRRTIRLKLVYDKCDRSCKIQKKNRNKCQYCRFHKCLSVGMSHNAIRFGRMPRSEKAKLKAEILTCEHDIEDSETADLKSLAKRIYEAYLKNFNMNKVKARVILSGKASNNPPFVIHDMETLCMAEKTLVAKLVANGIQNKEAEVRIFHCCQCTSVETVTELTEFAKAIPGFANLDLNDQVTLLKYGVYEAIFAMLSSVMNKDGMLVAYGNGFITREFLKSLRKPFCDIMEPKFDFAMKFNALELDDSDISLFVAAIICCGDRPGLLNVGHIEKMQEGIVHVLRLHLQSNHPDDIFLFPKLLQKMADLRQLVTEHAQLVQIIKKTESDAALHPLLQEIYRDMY
Procedure: as §1

human PPARγ (NR1C3) = target: T3, human PPARγ (NR1C3) (Homo sapiens, UniProt P37231); assay: Cell-based human PPARγ transactivation (nuclear receptor reporter) assay; details: FIG. 3
T3 sequence (P37231 1-505): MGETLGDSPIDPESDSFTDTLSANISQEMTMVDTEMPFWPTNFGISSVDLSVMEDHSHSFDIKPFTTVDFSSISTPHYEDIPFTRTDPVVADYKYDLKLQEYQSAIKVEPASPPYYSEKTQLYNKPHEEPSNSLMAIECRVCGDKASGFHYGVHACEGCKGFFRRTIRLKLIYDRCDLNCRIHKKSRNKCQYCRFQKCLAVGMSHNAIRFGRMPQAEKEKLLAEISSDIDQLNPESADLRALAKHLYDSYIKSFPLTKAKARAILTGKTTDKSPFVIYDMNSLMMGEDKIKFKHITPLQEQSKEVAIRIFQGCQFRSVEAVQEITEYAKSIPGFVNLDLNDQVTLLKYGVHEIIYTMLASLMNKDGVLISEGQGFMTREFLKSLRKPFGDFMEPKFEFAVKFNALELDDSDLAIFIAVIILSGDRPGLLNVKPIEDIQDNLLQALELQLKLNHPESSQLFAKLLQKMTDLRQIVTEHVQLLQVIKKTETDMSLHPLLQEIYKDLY
Procedure: as §1

[3] = tested on: IMQ-stimulated HaCaT cells; assay: Anti-inflammatory effect, IMQ-stimulated HaCaT cell model (IL-6, IL-8 ELISA); assay type: cell-based, human; details: IMQ 50 μM, 24 h, vs control
Procedure: (§2) Three in vitro models based on HaCaT cell culture were tested. HaCaT cells were maintained as described above in DMEM high glucose (4.5g/L) medium supplemented with 10% FBS and 1% (v/v) penicillin/streptomycin solution (Invitrogen, Thermo Fisher) and kept in an incubator at 37° C. with 5% CO2. For experiments, the cells were seeded at 5×10^4 cells/well in 1 mL of medium to a 24-well culture plate (Nunc, Thermo Fisher) and incubated overnight.
(§3) (1) For the imiquimod (IMQ)-stimulated HaCaT model, IMQ (Alfa Aesar) at 50 μM final concentration was used in the experiments; (2) for TNFα/IL-17A-stimulated-HaCaT model, 2 ng/mL of each cytokine (R&D Systems) was used; and (3) for the lipopolysaccharide (LPS, Sigma) simulated HaCaT cell model, 20 μg/mL LPS was used. For drug chemical treatment the old medium in the culture plates described above was discarded and the corresponding stimulant (IMQ, TNFα/IL-17A, or LPS) with or without test chemicals in 0.5 mL fresh medium was added to each cell well. There were duplicate wells for each treatment. The plate was incubated for another 24 h and the supernatant was collected for cytokine analysis, namely IL-6 and IL-8, using the corresponding ELISA kits (Thermo Fisher).

[4] = tested on: LPS-stimulated HaCaT cells; assay: Anti-inflammatory effect, LPS-stimulated HaCaT cell model (IL-6, IL-8 ELISA); assay type: cell-based, human; details: LPS 20 μg/mL, 24 h
Procedure: as §2
as §3, with “Fisher). The experiments were repeated independently to confirm the observation.” for “Fisher).”

[5] = initial studies, range 1 to 30 μM, HaCaT model
[6] = creams at 1% and 5%, once daily day 10 to day 16, FIG. 11

Q: Which HaCaT growth ([1]; at higher concentrations, e.g. 30 μM) does the source give for `C=C(C)[C@@H]1CCC(C)=C[C@H]1c1c(O)cc(CCCCC)cc1O` [CBD, cannabidiol, reference compound] here?
A: inhibit HaCaT growth

Q: And the “production of IL-6” value [1, 5]?
A: reduced

Q: What about the “production of IL-8” value [1, 5] of the same compound?
A: reduced

Q: What about the tolerability in mice [2] of the same compound?
A: well tolerated

Q: And the “visual damage on the skin” value [2]?
A: No visual damage

Q: `CSc1ccc(C(=O)/C=C/c2cc(C)c(OC(C)(C)C(=O)O)c(C)c2)cc1` [elafibranor] was tested. Which PPARδ/β transactivation activity (human PPARδ/β (NR1C2)) did it give?
A: showed activities

Q: For `CCCc1cc(C(=O)c2ccc(F)cc2)ccc1OCCCOc1ccc2c(cnn2CC(=O)OC)c1` [MP-152, methyl 2-(5-(3-(4-(4-fluorobenzoyl)-2-propylphenoxy)nropoxy)-1H-indazol-1-yl)acetate], which “PPARα transactivation: concentration at which (or starting at which) active” value (human PPARα (NR1C1)) is on record?
A: 1 µM

Q: And the “PPARγ transactivation: concentration at which (or starting at which) active” value (human PPARγ (NR1C3))?
A: 1,000 nM

Q: What about the “production of IL-6” value ([3]; compound at 2.5 μM) of the same compound?
A: significantly inhibited

Q: What about the “production of IL-6” value ([3]; compound at 25 μM) of the same compound?
A: significantly inhibited

Q: What about the “reduction of IL-8 production compared with rosiglitazone and fenofibrate” value ([4]; 25 μM) of the same compound?
A: more active

Q: And the “production of IL-6” value ([4]; compound at 25 uM)?
A: reduced

Q: And the “reducing the PASI score compared with CP” value [2, 6]?
A: more effective than CP

Q: What about the “reducing the PASI score, rank among the treatment groups” value [2, 6] of the same compound?
A: most active

Q: What about the tolerability in mice [2] of the same compound?
A: well tolerated

Q: And the “visual damage on the skin” value [2]?
A: No visual damage

Q: `CCO[C@@H](Cc1ccc(OCCn2c(C)ccc2-c2ccc(SC)cc2)cc1)C(=O)O` [saroglitazar] was tested. Which PPARδ/β transactivation activity (human PPARδ/β (NR1C2)) did it give?
A: showed activities
